Data on eleven compounds can be found in ChEMBL document CHEMBL1201862, “PubChem BioAssay data set” (2004).

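Step 1: Grow cells in 96-well plates. Step 2: Expose to compound for 48 hours at 5 concentrations. Step 3: Interpolate endpoints linearly; if unreached, use highest concentration. GI50 = concentration required for 50% inhibition of growth.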 The source made the active and inactive calls. No stated cut-off is given here; in the data, active = GI50 up to about 1.1 µM and inactive = higher. Bounds are passed on as bounds.

Some test systems named below: SK-MEL-2; KM12; SW-620; UO-31; NCI/ADR-RES; MDA-MB-231; ACHN; UACC-257; RXF 393; TK-10; SF-539; PC-3; COLO 205; OVCAR-5; MDA-MB-435; NCI-H460; NCI-H522; SF-295; RPMI-8226; BT-549.
Holding throughout (assay): NCI tumour cell line growth inhibition, 48 h

As for `CC(=O)c1ccc2c(c1)CC1(C2)Cc2cc3c(cc2C1)C(=O)CC3` (configuration not stated), the GI50 in the assay with SK-MEL-2 was 0.356 µM (active); with KM12, 0.624 µM (active); in the assay with SW-620 it was 0.681 µM (active); with UO-31, 9.53 µM (inactive); with NCI/ADR-RES, 1.57 µM (inactive); in the assay on MDA-MB-231, 2.51 µM (inactive). Moreover, the GI50 was 3.07 µM (inactive) in the assay on ACHN; 11.4 µM (inactive) in the assay with UACC-257; 2.28 µM (inactive) with RXF 393; 9.35 µM (inactive) in the assay on TK-10; 0.733 µM (active) in the assay with SF-539; 3.13 µM (inactive) in the assay on PC-3. Further, the GI50 in the assay with COLO 205 was 0.344 µM (active); in the assay with OVCAR-5, 6.75 µM (inactive); with MDA-MB-435, 0.242 µM (active); in the assay on NCI-H460 it was 0.453 µM (active); in the assay on NCI-H522, 1.93 µM (inactive); in the assay with SF-295, 0.594 µM (active). The GI50 in the assay with RPMI-8226 was 0.345 µM (active).
With `CCCNC(=S)N/N=C1\C(=O)Nc2ccccc21`, the GI50 in the assay with SK-MEL-2, with KM12, in the assay with SW-620, in the assay on UO-31, in the assay on NCI/ADR-RES and with MDA-MB-231 was > 100 µM (inactive) in each case. Besides, the GI50 with ACHN, with UACC-257, in the assay with RXF 393, with TK-10, in the assay on SF-539 and in the assay with PC-3 was > 100 µM (inactive) throughout. The GI50 in the assay with COLO 205, in the assay with OVCAR-5, in the assay with MDA-MB-435, in the assay on NCI-H460, with NCI-H522 and in the assay with SF-295 was > 100 µM (inactive) throughout. For the same compound, in the assay on RPMI-8226, the GI50 was > 100 µM (inactive).
For the compound `O=C(CC(C(=O)O)N1CCOCC1)c1ccccc1` (configuration not stated), the GI50 is 19.1 µM (inactive) with SK-MEL-2; 19.8 µM (inactive) in the assay with SW-620; > 100 µM (inactive) in the assay on NCI/ADR-RES; 15.3 µM (inactive) in the assay with MDA-MB-231; 16 µM (inactive) with ACHN; 13.4 µM (inactive) with UACC-257. Moreover, the GI50 is 18.4 µM (inactive) in the assay with RXF 393; 15.9 µM (inactive) with TK-10; 22.6 µM (inactive) in the assay on SF-539; 16.5 µM (inactive) in the assay with PC-3; 21.1 µM (inactive) in the assay on COLO 205; 18.6 µM (inactive) in the assay on BT-549. In addition, the GI50 in the assay on OVCAR-5 is 22.3 µM (inactive); with NCI-H460, 19.5 µM (inactive); with NCI-H522, > 100 µM (inactive); with SF-295, 41.2 µM (inactive); in the assay on RPMI-8226, 12.7 µM (inactive).
Take `COc1ccc(C2c3cc4c(cc3OC(N3CCOCC3)C2C)OCO4)cc1` (configuration not stated): the GI50 is 22.4 µM (inactive) in the assay on SK-MEL-2; 23.4 µM (inactive) in the assay with KM12; 29.1 µM (inactive) in the assay with SW-620; 19.9 µM (inactive) in the assay on UO-31; 23.2 µM (inactive) with NCI/ADR-RES; 21.4 µM (inactive) in the assay on ACHN. In addition, the GI50 is 21.9 µM (inactive) in the assay on UACC-257; 19.1 µM (inactive) in the assay on RXF 393; 29.1 µM (inactive) in the assay with TK-10; 21.4 µM (inactive) in the assay with SF-539; 22.3 µM (inactive) in the assay on PC-3; 27.2 µM (inactive) with COLO 205. Besides, the GI50 was 20.3 µM (inactive) with BT-549; 34.8 µM (inactive) with OVCAR-5; 20.7 µM (inactive) in the assay with MDA-MB-435; 26.1 µM (inactive) in the assay with NCI-H460; 30 µM (inactive) in the assay on NCI-H522; 15.1 µM (inactive) with SF-295. Further, in the assay with RPMI-8226, the GI50 was 15.3 µM (inactive).
For the compound `Nc1nnc2n1C(=O)C(C1(C3=Nc4nnc(N)n4C3=O)Cc3ccccc3C1=O)=N2`, the GI50 in the assay on KM12 is > 100 µM (inactive); with SW-620 it was > 100 µM (inactive); with UO-31, > 100 µM (inactive); with NCI/ADR-RES, > 100 µM (inactive); with MDA-MB-231, 31.8 µM (inactive); with ACHN it was > 100 µM (inactive). Moreover, the GI50 in the assay with UACC-257, with RXF 393, in the assay with TK-10, in the assay on SF-539, with PC-3 and in the assay with COLO 205 was > 100 µM (inactive) throughout. Besides, the GI50 in the assay on OVCAR-5, with MDA-MB-435, with NCI-H460, in the assay with SF-295 and in the assay on RPMI-8226 was > 100 µM (inactive) each time.
As to `O=C(NNS(=O)(=O)c1ccc(Br)cc1)c1ccc(Cl)cc1NC(=O)C12CC3CC(CC(C3)C1)C2`, the GI50 in the assay on SK-MEL-2 is 11.8 µM (inactive); with KM12, 16.4 µM (inactive); with SW-620, 19.5 µM (inactive); in the assay with UO-31, 11.7 µM (inactive); in the assay on NCI/ADR-RES, 14.3 µM (inactive); in the assay on ACHN it was 16 µM (inactive). The GI50 in the assay on UACC-257 is 13.5 µM (inactive); in the assay with RXF 393, 15.7 µM (inactive); with TK-10, 12.5 µM (inactive); in the assay on SF-539 it was 17.3 µM (inactive); in the assay with PC-3 it was 15.9 µM (inactive); in the assay on COLO 205, 12 µM (inactive). Also, the GI50 with BT-549 was 16.7 µM (inactive); with OVCAR-5, 18.2 µM (inactive); in the assay on MDA-MB-435, 12.4 µM (inactive); in the assay on NCI-H460 it was 8.34 µM (inactive); in the assay with NCI-H522 it was 12.4 µM (inactive); in the assay with SF-295, 13.9 µM (inactive). Moreover, the GI50 in the assay with RPMI-8226 is 4.49 µM (inactive).
For `Cn1c2c(c3ccccc31)CCN1C(=O)CN(C(=O)C3CCCCC3)CC21` (configuration not stated), the GI50 in the assay on SK-MEL-2, in the assay on KM12, with SW-620, with UO-31, in the assay with NCI/ADR-RES and in the assay with MDA-MB-231 was > 100 µM (inactive) each time. Further, the GI50 in the assay with ACHN, in the assay with UACC-257, with RXF 393, in the assay on TK-10, in the assay with SF-539 and in the assay with PC-3 was > 100 µM (inactive) each time. The GI50 in the assay with COLO 205, in the assay with OVCAR-5, in the assay on MDA-MB-435, in the assay with NCI-H460, with NCI-H522 and with SF-295 was > 100 µM (inactive) in each case. Also, the GI50 in the assay with RPMI-8226 was > 100 µM (inactive).
In the case of `Cc1ccc(S(=O)(=O)NC(=O)NC(CC(=O)O)C(=O)O)cc1` (configuration not stated), the GI50 in the assay with SK-MEL-2, in the assay with KM12, with SW-620, in the assay with UO-31, in the assay with NCI/ADR-RES and with MDA-MB-231 was > 100 µM (inactive) each time. For the same compound, the GI50 in the assay on ACHN, with UACC-257, in the assay with RXF 393, with TK-10, in the assay with SF-539 and with PC-3 was > 100 µM (inactive) each time. The GI50 with COLO 205, with BT-549, with OVCAR-5, with NCI-H460, with NCI-H522 and in the assay on SF-295 was > 100 µM (inactive) each time. For the same compound, the GI50 with RPMI-8226 was > 100 µM (inactive).
With `C[C@@H]1[C@H](O)CC2=C(CC[C@@H](O)C2(C)C)[C@@]1(CO)CCc1ccoc1`, the GI50 in the assay with SK-MEL-2, with KM12, in the assay with SW-620, with UO-31, with NCI/ADR-RES and in the assay on MDA-MB-231 was > 50 µM (inactive) throughout. Besides, the GI50 in the assay on ACHN is > 50 µM (inactive); in the assay on UACC-257 it was > 50 µM (inactive); in the assay with RXF 393 it was > 50 µM (inactive); with TK-10, > 50 µM (inactive); with SF-539, > 50 µM (inactive); with PC-3, 46.3 µM (inactive). For the same compound, the GI50 with COLO 205, with BT-549, in the assay with OVCAR-5, with NCI-H460 and in the assay on SF-295 was > 50 µM (inactive) each time.
With `CC(=O)CSc1c(-c2ccccc2)c(=O)n(-c2ccccc2)c(=S)n1-c1ccccc1`, the GI50 in the assay with SK-MEL-2, in the assay on KM12, with SW-620, in the assay with UO-31, with NCI/ADR-RES and with ACHN was > 100 µM (inactive) in each case. Further, the GI50 with UACC-257, in the assay on TK-10, with PC-3, in the assay with COLO 205, in the assay on BT-549 and with OVCAR-5 was > 100 µM (inactive) in each case. Moreover, the GI50 in the assay with MDA-MB-435, with NCI-H460, in the assay on NCI-H522, with SF-295 and with RPMI-8226 was > 100 µM (inactive) in each case.
With `CC(C)(C)C1=C(Br)C(C(C)(C)C)OP1(=O)O` (configuration not stated), the GI50 in the assay with SK-MEL-2, in the assay with KM12, with UO-31, in the assay on NCI/ADR-RES, in the assay on ACHN and in the assay on UACC-257 was > 100 µM (inactive) throughout. The GI50 with TK-10, with SF-539, in the assay with PC-3, with COLO 205, with OVCAR-5 and with MDA-MB-435 was > 100 µM (inactive) throughout. The GI50 in the assay on NCI-H460, with NCI-H522 and in the assay on SF-295 was > 100 µM (inactive) in each case.
